Data published in US6455520B1, “Benzamide derivatives and their use as cytokine inhibitors” (Astra Zeneca AB, priority 1998, dated 2002).

Legend:
[1] = tested on: TNFα production by human peripheral blood mononuclear cells; experiment: PBMC test: inhibition of LPS-stimulated TNFα production; type: cell-based
Experimental: The ability of compounds of this invention to inhibit TNFα production was assessed by using human peripheral blood mononuclear cells which synthesise and secrete TNFα when stimulated with lipopolysaccharide.
Peripheral blood mononuclear cells (PBMC) were isolated from heparinised (10 units/ml heparin) human blood by density centrifugation (Lymphoprep™; Nycomed). Mononuclear cells were resuspended in culture medium [RPMI 1640 medium (Gibco) supplemented with 50 units/ml penicillin, 50 μg/ml streptomycin, 2 mM glutamine and 1% heat-inactivated human AB serum (Sigma H-1513)]. Compounds were solubilised in DMSO at a concentration of 50 mM, diluted 1:100 in culture medium and subsequently serial dilutions were made in culture medium containing 1% DMSO. PBMCs (2.4×10^5 cells in 160 μl culture medium) were incubated with 20 μl of varying concentrations of test compound (triplicate cultures) or 20 μl culture medium containing 1% DMSO (control wells) for 30 minutes at 37° C. in a humidified (5%CO2/95% air) incubator (Falcon 3072; 96 well flat-bottom tissue culture plates). 20 μl lipopolysaccharide [LPS E.Coli 0111:B4 (Sigma L-4130), final concentration 10 μg/ml] solubilised in culture medium was added to appropriate wells. 20 μl culture medium was added to “medium alone” control wells. Six “LPS alone” and four “medium alone” controls were included on each 96 well plate. Varying concentrations of a known TNFα inhibitor were included in each test, i.e. an inhibitor of the PDE Type IV enzyme (for example see Semmler, J. Wachtel. H and Endres, S., Int. J. Immunopharmac. (1993), 15(3), 409-413) or an inhibitor of pro TNFα convertase (for example, see McGeehan, G. M. et al. Nature (1994) 370, 558-561). Plates were incubated for 7 hours at 37° C. (humidified incubator) after which 100 μl of the supernatant was removed from each well and stored at −70° C. (96 well round-bottom plates; Corning 25850). TNFα levels were determined in each sample using a human TNFα ELISA (see WO92/10190 and Current Protocols in Molecular Biology, vol 2 by Frederick M. Ausbel et al., John Wiley and Sons Inc.).
% inhibition=(LPS alone−medium alone)−(test concentration−medium alone)/(LPS alone−medium alone)×100

[2] = target: T1, p38α (Homo sapiens, UniProt Q16539); experiment: In vitro enzyme assay, p38α; type: biochemical; conditions: read-out: IC50 against p38α
T1 construct: c-myc (N); 6His (N); made in house; host or cells: E. coli (PET vectors)
T1 sequence (Q16539 whole entry): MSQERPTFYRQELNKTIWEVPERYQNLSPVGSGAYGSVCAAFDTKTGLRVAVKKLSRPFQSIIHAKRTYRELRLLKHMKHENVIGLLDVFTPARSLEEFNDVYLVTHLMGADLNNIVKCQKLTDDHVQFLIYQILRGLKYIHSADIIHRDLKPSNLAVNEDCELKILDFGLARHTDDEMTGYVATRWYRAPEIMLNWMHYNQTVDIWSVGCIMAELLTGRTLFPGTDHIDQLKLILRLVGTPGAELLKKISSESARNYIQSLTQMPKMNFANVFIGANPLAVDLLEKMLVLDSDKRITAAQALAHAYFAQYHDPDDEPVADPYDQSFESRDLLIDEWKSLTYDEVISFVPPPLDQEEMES
Experimental: The ability of compounds of the invention to inhibit the enzyme p38 kinase was assessed. Activity of test compounds against each of the p38α and p38β isoforms of the enzyme was determined.
Human recombinant MKK6 (GenBank Accesion Number G1209672) was isolated from Image clone 45578 (Genomics, 1996, 33, 151) and utilised to produce protein in the form of a GST fusion protein in a pGEX vector using analogous procedures to those disclosed by J. Han et al., Journal of Biological Chemistry, 1996, 271, 2886-2891. p38α (GenBank Accession Number G529039) and p38β (GenBank Accession Number G1469305) were isolated by PCR amplification of human lymphoblastoid cDNA (GenBank Accession Number GM1416) and human foetal brain cDNA [synthesised from mRNA (Clontech, catalogue no. 6525-1) using a Gibco superscript cDNA synthesis kit] respectively using oligonucleotides designed for the 5′ and 3′ ends of the human p38α and p38β genes using analogous procedures to those described by J. Han et al., Biochimica et Biophysica Acta, 1995, 1265, 224-227 and Y. Jiang et al., Journal of Biological Chemistry, 1996, 271, 17920-17926.
Both p38 protein isoforms were expressed in e coli in PET vectors. Human recombinant p38α and p38β isoforms were produced as 5′ c-myc, 6His tagged proteins. Both MKK6 and the p38 proteins were purified using standard protocols: the GST MKK6 was purified using a glutathione sepharose column and the p38 proteins were purified using nickel chelate columns.
The p38 enzymes were activated prior to use by incubation with MKK6 for 3 hours at 30° C. The unactivated coli-expressed MKK6 retained sufficient activity to fully activate both isoforms of p38. The activation incubate comprised p38α (10 μl of 10 mg/ml) or p38β (10 μl of 5 mg/ml) together with MKK6 (10 μl of 1 mg/ml), ‘Kinase buffer’ [100 μl; pH 7.4 buffer comprising Tris (50 mM), EGTA (0.1 mM), sodium orthovanadate (0.1 mM) and β-mercaptoethanol (0.1%)] and MgATP (30 μl of 50 mM Mg(OCOCH3)2 and 0.5 mM ATP). This produced enough activated p38 enzyme for 3 Microtiter plates.
Test compounds were solubilised in DMSO and 10 μl of a 1:10 diluted sample in ‘Kinase Buffer’ was added to a well in a Microtiter plate. For single dose testing, the compounds were tested at 10 μM. ‘Kinase Assay Mix’ [30 μl; comprising Myelin Basic Protein (Gibco BRL cat. no. 1322B-010; 1 ml of a 3.33 mg/ml solution in water), activated p38 enzyme (50 μl ) and ‘Kinase Buffer’ (2 ml)] was then added followed by ‘Labelled ATP’ [10 μl; comprising 50 μM ATP, 0.1 μCi ^33P ATP (Amersham International cat. no. BF1000) and 50 mM Mg(OCOCH3)2]. The plates were incubated at room temperature with gentle agitation. Plates containing p38α were incubated for 90 min and plates containing p38β P were incubated for 45 min. Incubation was stopped by the addition of 50 μl of 20% trichloroacetic acid (TCA). The precipitated protein was phosphorylated by p38 kinase and test compounds were assessed for their ability to inhibit this phosphorylation. The plates were filtered using a Canberra Packard Unifilter and washed with 2% TCA, dried overnight and counted on a Top Count scintillation counter.
Test compounds were tested initially at a single dose and active compounds were retested to allow IC50 values to be determined.

[3] = tested on: TNFα production in human whole blood; experiment: Human Whole Blood test: inhibition of LPS-stimulated TNFα production; type: cell-based
Experimental: The ability of the compounds of this invention to inhibit TNFα production was also assessed in a human whole blood assay. Human whole blood secretes TNFα when stimulated with LPS. This property of blood forms the basis of an assay which is used as a secondary test for compounds which profile as active in the PBMC test.
Heparinised (10 units/ml) human blood was obtained from volunteers. 160 μl whole blood were added to 96 well round-bottom plates (Corning 25850). Compounds were solubilised and serially diluted in RPMI 1640 medium (Gibco) supplemented with 50 units/ml penicillin, 50 μg/ml streptomycin and 2 mM glutamine, as detailed above. 20 μl of each test concentration was added to appropriate wells (triplicate cultures). 20 μl of RPMI 1640 medium supplemented with antibiotics and glutamine was added to control wells. Plates were incubated for 30 minutes at 37° C. (humidified incubator), prior to addition of 20 μl LPS (final concentration 10 μg/ml). RPMI 1640 medium was added to control wells. Six “LPS alone” and four “medium alone” controls were included on each plate. A known TNFα synthesis/secretion inhibitor was included in each test. Plates were incubated for 6 hours at 37° C. (humidified incubator). […] TNFα levels were measured by ELISA (see WO92/10190 and Current Protocols in Molecular Biology, vol 2 by Frederick M. Ausbel et al., John Wiley and Sons Inc.). […]

SMILES	IC50 [1]	IC50 [2]	IC50 [3]	melting point
Cc1ccc(NC(=O)c2ccno2)cc1NC(=O)c1cccc(CN2CCN(C)CC2)c1 [N-{4-methyl-3-[3-(4-methylpiperazin-1-ylmethyl)benzamido]phenyl}isoxazole-5-carboxamide]	~1000 nM	~800 nM		
Cc1ccc(NC(=O)c2ccco2)cc1NC(=O)c1cccc(CN2CCN(C)CC2)c1 [N-{4-methyl-3-[3-(4-methylpiperazin-1-ylmethyl)benzamido]phenyl}furan-2-carboxamide]	~4000 nM	~1000 nM		
Cc1ccc(NC(=O)c2ccc3ncccc3c2)cc1NC(=O)c1cccc(OCCN2CCOCC2)c1 [Example 13, N-{3-[3-(2-morpholinoethoxy)benzamido]-4-methylphenyl}quinoline-6-carboxamide]				216 to 217 °C

Results, then the compound that gave them:

IC50 [1]	IC50 [2]	IC50 [3]	melting point	SMILES
< 500 nM	~100 nM			Cc1ccc(NC(=O)c2ccnc(N3CCCC3)c2)cc1NC(=O)c1cccc(CN2CCN(C)CC2)c1 [N-{3-[3-(4-methylpiperazin-1-ylmethyl)benzamido]-4-methylphenyl}-2-pyrrolidin-1-ylpyridine-4-carboxamide]
< 500 nM	~200 nM	~10000 nM		CCN(CC)Cc1ccc(C(=O)Nc2cc(NC(=O)c3ccnc(N4CCOCC4)c3)ccc2C)cc1 [N-[3-(4-diethylaminomethylbenzamido)-4-methylphenyl]-2-morpholinopyridine-4-carboxamide]
< 500 nM	~100 nM	~7000 nM		Cc1ccc(NC(=O)c2ccnc(N3CCOCC3)c2)cc1NC(=O)c1cccc(CN2CCN(C)CC2)c1 [N-{3-[3-(4-methylpiperazin-1-ylmethyl)benzamido]-4-methylphenyl}-2-morpholinopyridine-4-carboxamide]
